Experimental data published in the supplement of paper PMC8882468.

Each molecule was assayed on HCI-016 (organoid from a triple-negative breast cancer xenograft) (assay: CTG-3D luminescence at 96 h relative to day-0 seeding control (ratio to day 0); higher = more growth / less cytotoxicity; PDxO 3D drug screen, 96 h, CTG-3D normalised to day-0 seeding control.). Conditions: 1 µM; days in culture: 153.

SMILES | CTG-3D luminescence at 96 h
C[C@@H]1COCCN1c1cc(C2([S@](C)(=N)=O)CC2)nc(-c2cc[nH]c3nccc2-3)n1 [ceralasertib] | 1.72
CCN1CCN(Cc2ccc(Nc3ncc(F)c(-c4cc(F)c5nc(C)n(C(C)C)c5c4)n3)nc2)CC1 [abemaciclib] | 1.14
NC1(C(=O)N[C@@H](CCO)c2ccc(Cl)cc2)CCN(c2nc[nH]c3nccc2-3)CC1 [capivasertib] | 2.43
CC(C)n1nc(-c2ccc3oc(N)nc3c2)c2c(N)ncnc21 [sapanisertib] | 0.922
O=C(c1ccc(F)c(F)c1Nc1ccc(I)cc1F)N1CC(O)([C@@H]2CCCCN2)C1 [cobimetinib] | 1.56
C[C@H](NC(=O)CCC(F)(F)F)C(=O)N[C@@H]1C(=O)N(CCO)c2ncccc2-c2ccccc21 [crenigacestat] | 2.21
Cc1cc(Nc2ncc(Cl)c(Nc3ccccc3S(=O)(=O)C(C)C)n2)c(OC(C)C)cc1C1CCNCC1 [ceritinib] | 2.1
CS(=O)(=O)c1ccc(C(=O)Nc2ccc(Cl)c(-c3ccccn3)c2)c(Cl)c1 [vismodegib] | 2.95
NC(=O)c1cccc2cn(-c3ccc([C@@H]4CCCNC4)cc3)nc12 [niraparib] | 0.989

Same assay, conditions: 1 µM; days in culture: 172

SMILES | CTG-3D luminescence at 96 h
C[C@@H]1COCCN1c1cc(C2([S@](C)(=N)=O)CC2)nc(-c2cc[nH]c3nccc2-3)n1 [ceralasertib] | 1.12
CCN1CCN(Cc2ccc(Nc3ncc(F)c(-c4cc(F)c5nc(C)n(C(C)C)c5c4)n3)nc2)CC1 [abemaciclib] | 1.25
NC1(C(=O)N[C@@H](CCO)c2ccc(Cl)cc2)CCN(c2nc[nH]c3nccc2-3)CC1 [capivasertib] | 1.72
CC(C)n1nc(-c2ccc3oc(N)nc3c2)c2c(N)ncnc21 [sapanisertib] | 0.584
O=C(c1ccc(F)c(F)c1Nc1ccc(I)cc1F)N1CC(O)([C@@H]2CCCCN2)C1 [cobimetinib] | 1.38
C[C@H](NC(=O)CCC(F)(F)F)C(=O)N[C@@H]1C(=O)N(CCO)c2ncccc2-c2ccccc21 [crenigacestat] | 1.58
Cc1cc(Nc2ncc(Cl)c(Nc3ccccc3S(=O)(=O)C(C)C)n2)c(OC(C)C)cc1C1CCNCC1 [ceritinib] | 1.46
CS(=O)(=O)c1ccc(C(=O)Nc2ccc(Cl)c(-c3ccccn3)c2)c(Cl)c1 [vismodegib] | 2.13
NC(=O)c1cccc2cn(-c3ccc([C@@H]4CCCNC4)cc3)nc12 [niraparib] | 1.36

Same assay, conditions: 1 µM; days in culture: 190

SMILES | CTG-3D luminescence at 96 h
C[C@@H]1COCCN1c1cc(C2([S@](C)(=N)=O)CC2)nc(-c2cc[nH]c3nccc2-3)n1 [ceralasertib] | 1.11
CCN1CCN(Cc2ccc(Nc3ncc(F)c(-c4cc(F)c5nc(C)n(C(C)C)c5c4)n3)nc2)CC1 [abemaciclib] | 1.26
NC1(C(=O)N[C@@H](CCO)c2ccc(Cl)cc2)CCN(c2nc[nH]c3nccc2-3)CC1 [capivasertib] | 1.13
CC(C)n1nc(-c2ccc3oc(N)nc3c2)c2c(N)ncnc21 [sapanisertib] | 0.464
O=C(c1ccc(F)c(F)c1Nc1ccc(I)cc1F)N1CC(O)([C@@H]2CCCCN2)C1 [cobimetinib] | 0.91
C[C@H](NC(=O)CCC(F)(F)F)C(=O)N[C@@H]1C(=O)N(CCO)c2ncccc2-c2ccccc21 [crenigacestat] | 0.838
Cc1cc(Nc2ncc(Cl)c(Nc3ccccc3S(=O)(=O)C(C)C)n2)c(OC(C)C)cc1C1CCNCC1 [ceritinib] | 1.42
CS(=O)(=O)c1ccc(C(=O)Nc2ccc(Cl)c(-c3ccccn3)c2)c(Cl)c1 [vismodegib] | 1.72
NC(=O)c1cccc2cn(-c3ccc([C@@H]4CCCNC4)cc3)nc12 [niraparib] | 0.974

Same assay, conditions: 1 µM; days in culture: 199

SMILES | CTG-3D luminescence at 96 h
C[C@@H]1COCCN1c1cc(C2([S@](C)(=N)=O)CC2)nc(-c2cc[nH]c3nccc2-3)n1 [ceralasertib] | 0.986
CCN1CCN(Cc2ccc(Nc3ncc(F)c(-c4cc(F)c5nc(C)n(C(C)C)c5c4)n3)nc2)CC1 [abemaciclib] | 1.21
NC1(C(=O)N[C@@H](CCO)c2ccc(Cl)cc2)CCN(c2nc[nH]c3nccc2-3)CC1 [capivasertib] | 1.44
CC(C)n1nc(-c2ccc3oc(N)nc3c2)c2c(N)ncnc21 [sapanisertib] | 0.511
O=C(c1ccc(F)c(F)c1Nc1ccc(I)cc1F)N1CC(O)([C@@H]2CCCCN2)C1 [cobimetinib] | 1.28
C[C@H](NC(=O)CCC(F)(F)F)C(=O)N[C@@H]1C(=O)N(CCO)c2ncccc2-c2ccccc21 [crenigacestat] | 1.78
Cc1cc(Nc2ncc(Cl)c(Nc3ccccc3S(=O)(=O)C(C)C)n2)c(OC(C)C)cc1C1CCNCC1 [ceritinib] | 1.36
CS(=O)(=O)c1ccc(C(=O)Nc2ccc(Cl)c(-c3ccccn3)c2)c(Cl)c1 [vismodegib] | 2.19
NC(=O)c1cccc2cn(-c3ccc([C@@H]4CCCNC4)cc3)nc12 [niraparib] | 0.655

Same assay, conditions: 10 µM; days in culture: 153

SMILES | CTG-3D luminescence at 96 h
C[C@@H]1COCCN1c1cc(C2([S@](C)(=N)=O)CC2)nc(-c2cc[nH]c3nccc2-3)n1 [ceralasertib] | 0.113
CCN1CCN(Cc2ccc(Nc3ncc(F)c(-c4cc(F)c5nc(C)n(C(C)C)c5c4)n3)nc2)CC1 [abemaciclib] | 0.355
NC1(C(=O)N[C@@H](CCO)c2ccc(Cl)cc2)CCN(c2nc[nH]c3nccc2-3)CC1 [capivasertib] | 1.43
CC(C)n1nc(-c2ccc3oc(N)nc3c2)c2c(N)ncnc21 [sapanisertib] | 0.411
O=C(c1ccc(F)c(F)c1Nc1ccc(I)cc1F)N1CC(O)([C@@H]2CCCCN2)C1 [cobimetinib] | 1.38
C[C@H](NC(=O)CCC(F)(F)F)C(=O)N[C@@H]1C(=O)N(CCO)c2ncccc2-c2ccccc21 [crenigacestat] | 2.33
Cc1cc(Nc2ncc(Cl)c(Nc3ccccc3S(=O)(=O)C(C)C)n2)c(OC(C)C)cc1C1CCNCC1 [ceritinib] | 0.0113
CS(=O)(=O)c1ccc(C(=O)Nc2ccc(Cl)c(-c3ccccn3)c2)c(Cl)c1 [vismodegib] | 1.79
NC(=O)c1cccc2cn(-c3ccc([C@@H]4CCCNC4)cc3)nc12 [niraparib] | 0.444

Same assay, conditions: 10 µM; days in culture: 172

SMILES | CTG-3D luminescence at 96 h
C[C@@H]1COCCN1c1cc(C2([S@](C)(=N)=O)CC2)nc(-c2cc[nH]c3nccc2-3)n1 [ceralasertib] | 0.141
CCN1CCN(Cc2ccc(Nc3ncc(F)c(-c4cc(F)c5nc(C)n(C(C)C)c5c4)n3)nc2)CC1 [abemaciclib] | 0.322
NC1(C(=O)N[C@@H](CCO)c2ccc(Cl)cc2)CCN(c2nc[nH]c3nccc2-3)CC1 [capivasertib] | 1.44
CC(C)n1nc(-c2ccc3oc(N)nc3c2)c2c(N)ncnc21 [sapanisertib] | 0.407
O=C(c1ccc(F)c(F)c1Nc1ccc(I)cc1F)N1CC(O)([C@@H]2CCCCN2)C1 [cobimetinib] | 0.776
C[C@H](NC(=O)CCC(F)(F)F)C(=O)N[C@@H]1C(=O)N(CCO)c2ncccc2-c2ccccc21 [crenigacestat] | 1.14
Cc1cc(Nc2ncc(Cl)c(Nc3ccccc3S(=O)(=O)C(C)C)n2)c(OC(C)C)cc1C1CCNCC1 [ceritinib] | 0.00857
CS(=O)(=O)c1ccc(C(=O)Nc2ccc(Cl)c(-c3ccccn3)c2)c(Cl)c1 [vismodegib] | 1.47
NC(=O)c1cccc2cn(-c3ccc([C@@H]4CCCNC4)cc3)nc12 [niraparib] | 0.272

Same assay, conditions: 10 µM; days in culture: 190

SMILES | CTG-3D luminescence at 96 h
C[C@@H]1COCCN1c1cc(C2([S@](C)(=N)=O)CC2)nc(-c2cc[nH]c3nccc2-3)n1 [ceralasertib] | 0.1
CCN1CCN(Cc2ccc(Nc3ncc(F)c(-c4cc(F)c5nc(C)n(C(C)C)c5c4)n3)nc2)CC1 [abemaciclib] | 0.196
NC1(C(=O)N[C@@H](CCO)c2ccc(Cl)cc2)CCN(c2nc[nH]c3nccc2-3)CC1 [capivasertib] | 1.1
CC(C)n1nc(-c2ccc3oc(N)nc3c2)c2c(N)ncnc21 [sapanisertib] | 0.421
O=C(c1ccc(F)c(F)c1Nc1ccc(I)cc1F)N1CC(O)([C@@H]2CCCCN2)C1 [cobimetinib] | 0.962
C[C@H](NC(=O)CCC(F)(F)F)C(=O)N[C@@H]1C(=O)N(CCO)c2ncccc2-c2ccccc21 [crenigacestat] | 1.52
Cc1cc(Nc2ncc(Cl)c(Nc3ccccc3S(=O)(=O)C(C)C)n2)c(OC(C)C)cc1C1CCNCC1 [ceritinib] | 0.0979
CS(=O)(=O)c1ccc(C(=O)Nc2ccc(Cl)c(-c3ccccn3)c2)c(Cl)c1 [vismodegib] | 1.66
NC(=O)c1cccc2cn(-c3ccc([C@@H]4CCCNC4)cc3)nc12 [niraparib] | 0.189

Same assay, conditions: 10 µM; days in culture: 199

SMILES | CTG-3D luminescence at 96 h
C[C@@H]1COCCN1c1cc(C2([S@](C)(=N)=O)CC2)nc(-c2cc[nH]c3nccc2-3)n1 [ceralasertib] | 0.0835
CCN1CCN(Cc2ccc(Nc3ncc(F)c(-c4cc(F)c5nc(C)n(C(C)C)c5c4)n3)nc2)CC1 [abemaciclib] | 0.0238
NC1(C(=O)N[C@@H](CCO)c2ccc(Cl)cc2)CCN(c2nc[nH]c3nccc2-3)CC1 [capivasertib] | 0.914
CC(C)n1nc(-c2ccc3oc(N)nc3c2)c2c(N)ncnc21 [sapanisertib] | 0.374
O=C(c1ccc(F)c(F)c1Nc1ccc(I)cc1F)N1CC(O)([C@@H]2CCCCN2)C1 [cobimetinib] | 1.19
C[C@H](NC(=O)CCC(F)(F)F)C(=O)N[C@@H]1C(=O)N(CCO)c2ncccc2-c2ccccc21 [crenigacestat] | 1.57
Cc1cc(Nc2ncc(Cl)c(Nc3ccccc3S(=O)(=O)C(C)C)n2)c(OC(C)C)cc1C1CCNCC1 [ceritinib] | 0.0047
CS(=O)(=O)c1ccc(C(=O)Nc2ccc(Cl)c(-c3ccccn3)c2)c(Cl)c1 [vismodegib] | 2.01
NC(=O)c1cccc2cn(-c3ccc([C@@H]4CCCNC4)cc3)nc12 [niraparib] | 0.118
